Laboratory results taken from patent publication US20210038559A1, “CANNABINOIDS AND DERIVATIVES FOR PROMOTING IMMUNOGENICITY OF TUMOR AND INFECTED CELLS” (priority 2018, published 2021).
Structures can show the parent of a compound that is named as a salt.

The molecules below were run on MHC-I expression by COLO 205 cells (assay: cells). Details: not given.
Format: cell-based, human
Experimental: A panel of synthetic cannabinoids (Cayman Chemical, #9002891) was tested for MHC class I-inducing capability in COLO 205 cells as described above. COLO 205 cells were treated with the compounds at a concentration of 35 μM and evaluated for cell surface MHC class I expression after 48 hours. Cells were harvested, stained with MHC-I mAb W6/32 (Thermo Fisher). MHC-I expression was determined by flow cytometry.

Point of comparison: `CS(=O)(=O)O.Cc1c(C(=O)c2cccc3ccccc23)c2cccc3c2n1C(CN1CCOCC1)CO3` (centres unmarked) [Example 376, [2,3-dihydro-5-methyl-3-(4-morpholinylmethyl)pyrrolo[1,2,3-de]-1,4-benzoxazin-6-yl]-1-naphthalenyl-methanone, methanesulfonate], “Induction Fold” value 0.32 Fold. Against it:
- CCCCCn1cc(C(=O)Cc2cccc(OC)c2)c2ccccc21 [Example 28, 2-(3-methoxyphenyl)-1-(1-pentyl-1H-indol-3-y1)-ethanone] — higher, 3.42 Fold
- [5-(2-chlorophenyl)-1-pentyl-1H-pyrrol-3-yl]-1-naphthalenyl-methanone [Example 63] — higher, 2.77 Fold
- O=C(c1cccc2ccccc12)c1cn(CCN2CCOCC2)c2ccccc12 [Example 57, [1-[2-(4-morpholinyl)ethyl]-1H-indol-3-yl]-1-naphthalenyl-methanone] — higher, 2.89 Fold
- CCCn1cc(C(=O)c2cccc3ccccc23)c2ccccc21 [Example 65, 1-naphthalenyl(1-propyl-1H-indol-3-yl)-methanone] — higher, 2.77 Fold
- CCCCCOc1ccc(C(=O)c2cccc3ccccc23)c2ccccc12 [Example 152, 1-naphthalenyl[4-(pentoxy)-1-naphthalenyl]-methanone] — higher, 2.12 Fold

Same assay, conditions: Homo sapiens, COLO 205, 48 h, MHC-I expression, COLO 205 cells, compounds at 35 μM, 48 hours, flow cytometry (W6/32); read-out: Induction Fold

Point of comparison: `CC(F)CCCn1cc(C(=O)C2C(C)(C)C2(C)C)c2ccccc21` (centres unmarked) [Example 235, (1-(4-fluoropentyl)-1H-indol-3-yl)(2,2,3,3-tetramethylcyclopropyl)methanone], fold induction at 35 µM 1.7. Against it:
- CC(C)(NC(=O)c1nn(CCCCC#N)c2ccccc12)c1ccccc1 [Example 281, 1-(4-cyanobutyl)-N-(1-methyl-1-phenylethyl)-1H-indazole-3-carboxamide] — lower, 1.48
- O=C(c1cccc2ccccc12)c1cn(CCCC2CO2)c2ccccc12 (centres unmarked) [Example 156, naphthalen-1-yl(1-(3-(oxiran-2-yl)propyl)-1H-indol-3-yl)methanone] — higher, 2.07
- COC(=O)[C@@H](NC(=O)c1nn(Cc2ccc(F)cc2)c2ccccc12)C(C)C [Example 15, N-[[1-[(4-fluorophenyl)methyl]-1H-indazol-3-yl]carbonyl]-L-valine, methyl ester] — higher, 4.2
- CC(C)(C)Cn1cc(C(=O)c2cccc3ccccc23)c2ccccc21 [Example 49, naphthalen-1-yl(1-neopentyl-1H-indol-3-yl)-methanone] — higher, 3
- CN1CCCC[C@@H]1Cn1cc(C(=O)c2cc([N+](=O)[O-])ccc2I)c2ccccc21 [Example 23, (2-iodo-5-nitrophenyl)[1-[[(2R)-1-methyl-2-piperidinyl]methyl]-1H-indol-3-yl]methanone] — higher, 3.64
- CN1CCCCC1Cn1cc(C(=O)c2cc([N+](=O)[O-])ccc2I)c2ccccc21 (centres unmarked) [Example 7, (2-iodo-5-nitrophenyl)-(1-(1-methylpiperidin-2-ylmethyl)-1H-indol-3-yl)methanone] — higher, 5.59
- CCCCCn1nc(C(=O)Nc2cccc3ccccc23)c2ccccc21 [Example 224, N-1-naphthalenyl-1-pentyl-1H-indazole-3-carboxamide] — higher, 1.75
- CCCC(F)CCn1cc(C(=O)c2cccc3ccccc23)c2ccccc21 (centres unmarked) [Example 176, (1-(3-fluorohexyl)-1H-indol-3-yl)(naphthalen-1-yl)methanone] — higher, 1.95
- CCC(Cl)CCn1cc(C(=O)C2C(C)(C)C2(C)C)c2ccccc21 (centres unmarked) [Example 37] — higher, 3.3
- O=C(Oc1cnc2ccccc2c1)c1cn(CCCCCF)c2ccccc12 [Example 136, quinolin-3-yl 1-(5-fluoropentyl)-1H-indole-3-carboxylate] — higher, 2.22
- CCCCCn1cc(C(=O)Nc2ccc3ccccc3c2)c2ccccc21 [Example 349, N-2-naphthalenyl-1-pentyl-1H-indole-3-carboxamide] — lower, 1.1
- COc1ccc(C(=O)c2cn(CC3CCCCC3)c3ccccc23)c2ccccc12 [Example 253, [1-(cyclohexylmethyl)-1H-indol-3-yl](4-methoxy-1-naphthalenyl)-methanone] — lower, 1.61
- O=C(c1cn(CCCCCF)c2ccccc12)C12CC3CC(CC(C3)C1)C2 [Example 160, [1-(5-fluoropentyl)-1H-indol-3-yl]tricyclo[3.3.1.13,7]dec-1-yl-methanone] — higher, 2.06
- CCC(CC)n1cc(C(=O)c2ccc3ccccc3c2)c2ccccc21 [Example 201, [1-(1-ethylpropyl)-1H-indol-3-yl]-2-naphthalenyl-methanone] — higher, 1.87
- O=C(c1ccc2ccccc2c1)c1cn(CCN2CCOCC2)c2ccccc12 [Example 13, [1-[2-(4-morpholinyl)ethyl]-1H-indol-3-yl]-2-naphthalenyl-methanone] — higher, 4.3
- CCCCCn1cc(C(=O)c2c(OC)ccc3ccccc23)c2ccccc21 [Example 90, (2-methoxy-1-naphthalenyl)(1-pentyl-1H-indol-3-yl)-methanone] — higher, 2.5
- CCCCCn1c(C(=O)c2cccc3ccccc23)nc2ccccc21 [Example 123, naphthalen-1-yl(1-pentyl-1H-benzo[d]imidazol-2-yl)methanone] — higher, 2.31
- CC(C)(NC(=O)c1cn(CCCCCF)c2ccccc12)c1ccccc1 [Example 356, 1-(5-fluoropentyl)-N-(1-methyl-1-phenylethyl)-1H-indole-3-carboxamide] — lower, 1.03
- CC[C@H](C)[C@H](NC(=O)c1nn(CCCCCF)c2ccccc12)C(N)=O (single isomer, unassigned) [Example 298] — lower, 1.42
- CCCC(C)n1cc(C(=O)c2ccc3ccccc3c2)c2ccccc21 (centres unmarked) [Example 362, naphthalen-2-yl(1-(pentan-2-yl)-1H-indol-3-yl)methanone] — lower, 0.95
- CN(C)C(=O)n1nnc(Cc2ccc(-c3ccccc3)cc2)n1 [Example 278, 5-([1,1′-biphenyl]-4-ylmethyl)-N,N-dimethyl-2H-tetrazole-2-carboxamide] — lower, 1.49
- CCCCCn1cc(C(=O)N2CCN(C)CC2)c2ccccc21 [Example 273, (4-methylpiperazin-1-yl)(1-pentyl-1H-indol-3-yl)methanone, monohydrochloride] — lower, 1.53
- CCCCCCC(C)(C)c1cc(O)cc(OCCCCCCCC(=O)NC2CC2)c1 [Example 159, N-cyclopropyl-8-[3-(1,1-dimethylheptyl)-5-hydroxyphenoxy]-octanamide] — higher, 2.06
- COc1ccc(N2CCNCC2)cc1 [Example 347, 1-(4-Methoxyphenyl) piperazine (hydrochloride)] — lower, 1.12
- CC(C)(O)CCn1c(=O)n(C(=O)N[C@H](C(N)=O)C(C)(C)C)c2ccccc21 [Example 345, N-[(1S)-1-(aminocarbonyl)-2,2-dimethylpropyl]-2,3-dihydro-3-(3-hydroxy-3-methylbutyl)-2-oxo-1H-benzimidazole-1-carboxamide] — lower, 1.13
- CCC(CC)n1cc(C(=O)c2cccc3ccccc23)c2ccccc21 [Example 48, naphthalen-1-yl(1-(pentan-3-yl)-1H-indol-3-yl)methanone] — higher, 3
- CCCCCn1c(C)c(C(=O)c2ccc(CC)c3ccccc23)c2ccccc21 [Example 244, (4-ethyl-1-naphthalenyl)(2-methyl-1-pentyl-1H-indol-3-yl)-methanone] — lower, 1.66
- CC(C)(C)C(NC(=O)c1cc(-c2ccc(F)cc2)nn1CCCCCF)C(N)=O (centres unmarked) [Example 119, N-[1-(aminocarbonyl)-2,2-dimethylpropyl]-1-(5-fluoropentyl)-3-(4-fluorophenyl)-1H-pyrazole-5-carboxamide] — higher, 2.33
- CCCCCn1cc(C(=O)Oc2ccnc3ccccc23)c2ccccc21 [Example 10, quinolin-4-yl 1-pentyl-1H-indole-3-carboxylate] — higher, 5.02
- CCCCCn1nc(C(=O)Nc2cccc3cccnc23)c2ccccc21 [Example 232, 1-pentyl-N-(quinolin-8-yl)-1H-indazole-3-carboxamide] — higher, 1.71
- CCCCCn1cc(C(=O)NC(C)(C)c2ccccc2)c2ccccc21 [Example 351, N-(1-methyl-1-phenylethyl)-1-pentyl-1H-indole-3-carboxamide] — lower, 1.07
- CCCCCn1cc(C(=O)N[C@H](C(=O)OC)C(C)C)c2ccccc21 [Example 328, N-[(1-pentyl-1H-indol-3-yl)carbonyl]-L-valine, methyl ester] — lower, 1.24

Same assay, conditions: Homo sapiens, COLO 205, 48 h, read-out: Induction Fold

With `CN1CCCCC1Cn1cc(C(=O)C2C(C)(C)C2(C)C)c2ccccc21` (centres unmarked) [Example 368, [1-[(1-methyl-2-piperidinyl)methyl]-1H-indol-3-yl](2,2,3,3-tetramethylcyclopropyl)-methanone] the fold induction at 35 µM was 0.85.

Same assay, conditions: MHC-I expression, COLO 205 cells, compounds at 35 μM, 48 hours, flow cytometry (W6/32)

Point of comparison: `O=C(OC12CC3CC(CC(C3)C1)C2)c1nn(CCCCCF)c2ccccc12` [Example 358, (3s,5s,7s)-adamantan-1-yl 1-(5-fluoropentyl)-1H-indazole-3-carboxylate], “Induction Fold” value 1.02 Fold. Against it:
- CCCCCn1nc(C(=O)N[C@H](C(=O)OC)C(C)C)c2ccccc21 [Example 183, N-[(1-pentyl-1H-indazol-3-yl)carbonyl]-1-valine, methyl ester] — higher, 1.91 Fold
- CCCCCn1cc(C(=O)c2cccc3ccccc23)c2ccccc21 [Example 71, (1-pentyl-1H-indol-3-yl)-1-naphthalenyl-methanone] — higher, 2.69 Fold
- COC(=O)[C@@H](NC(=O)c1cn(Cc2ccc(F)cc2)c2ccccc12)C(C)(C)C [Example 269, N-[[1-[(4-fluorophenyl)methyl]-1H-indol-3-yl]carbonyl]-3-methyl-1-valine, methyl ester] — higher, 1.54 Fold
